Consider nine compounds from patent US12421252B2, “Spiro (isobenzofuranazetidine) compounds for the treatment of autoimmune disease” (Hoffmann-La Roche Inc., priority 2020, dated 2025).

In this test the target is T1, human TLR7 (Homo sapiens, UniProt Q9NYK1).
T1 sequence (Q9NYK1 27-1049): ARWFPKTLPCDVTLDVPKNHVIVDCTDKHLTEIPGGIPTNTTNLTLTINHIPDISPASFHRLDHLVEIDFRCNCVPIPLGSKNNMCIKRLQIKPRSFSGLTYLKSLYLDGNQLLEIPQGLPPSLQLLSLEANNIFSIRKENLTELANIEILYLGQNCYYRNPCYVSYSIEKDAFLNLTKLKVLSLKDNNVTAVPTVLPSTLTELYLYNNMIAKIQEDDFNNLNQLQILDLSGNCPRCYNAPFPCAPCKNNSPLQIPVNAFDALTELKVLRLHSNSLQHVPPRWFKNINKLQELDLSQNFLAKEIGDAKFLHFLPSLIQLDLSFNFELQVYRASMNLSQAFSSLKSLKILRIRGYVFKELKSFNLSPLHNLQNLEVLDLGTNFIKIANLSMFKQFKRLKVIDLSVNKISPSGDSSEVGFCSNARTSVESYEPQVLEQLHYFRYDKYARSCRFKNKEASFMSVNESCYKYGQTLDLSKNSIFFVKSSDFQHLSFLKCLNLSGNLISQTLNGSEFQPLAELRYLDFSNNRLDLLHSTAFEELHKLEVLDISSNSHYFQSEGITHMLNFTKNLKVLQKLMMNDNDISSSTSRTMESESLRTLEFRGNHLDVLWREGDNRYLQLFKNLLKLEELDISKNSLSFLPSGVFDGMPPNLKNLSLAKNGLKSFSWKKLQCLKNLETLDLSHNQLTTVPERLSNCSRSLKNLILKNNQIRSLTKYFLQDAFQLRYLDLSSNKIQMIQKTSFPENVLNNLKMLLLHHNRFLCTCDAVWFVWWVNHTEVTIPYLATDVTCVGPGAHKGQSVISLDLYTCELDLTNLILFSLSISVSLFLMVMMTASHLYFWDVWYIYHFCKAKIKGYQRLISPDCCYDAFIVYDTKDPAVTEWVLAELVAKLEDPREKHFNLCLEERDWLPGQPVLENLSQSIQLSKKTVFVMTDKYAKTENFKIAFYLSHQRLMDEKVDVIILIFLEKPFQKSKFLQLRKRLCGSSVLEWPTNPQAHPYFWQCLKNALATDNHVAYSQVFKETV
Description: HEK293-Blue-hTLR-7 cells assay. It counts as cell-based. To be noted: HEK293-Blue-hTLR7 cells, R848 stimulation, 20 hrs, SEAP reporter; read-out: HEK/hTLR7 IC50. The text has this:
HEK293-Blue-hTLR-7 cells assay:
A stable HEK293-Blue-hTLR-7 cell line was purchased from InvivoGen (Cat. #: hkb-htlr7, San Diego, California, USA). These cells were originally designed for studying the stimulation of human TLR7 by monitoring the activation of NF-κB. A SEAP (secreted embryonic alkaline phosphatase) reporter gene was placed under the control of the IFN-β minimal promoter fused to five NF-κB and AP-1-binding sites. The SEAP was induced by activating NF-κB and AP-1 via stimulating HEK-Blue hTLR7 cells with TLR7 ligands. Therefore the reporter expression was declined by TLR7 antagonist under the stimulation of a ligand, such as R848 (Resiquimod), for incubation of 20 hrs. The cell culture supernatant SEAP reporter activity was determined using QUANTI-Blue™ kit (Cat. #: rep-qb1, Invivogen, San Diego, Ca, USA) at a wavelength of 640 nm, a detection medium that turns purple or blue in the presence of alkaline phosphatase.
HEK293-Blue-hTLR7 cells were incubated at a density of 250,000˜450,000 cells/mL in a volume of 170 μL in a 96-well plate in Dulbecco's Modified Eagle's medium (DMEM) containing 4.5 g/L glucose, 50 U/mL penicillin, […], […], 2 mM L-glutamine, 10% (v/v) heat-inactivated fetal bovine serum with addition of 20 μL test compound in a serial dilution in the presence of final DMSO at 1% and 10 μL of 20 uM R848 in above DMEM, perform incubation under 37° C. in a CO2 incubator for 20 hrs. Then 20 μL of the supernatant from each well was incubated with 180 μL Quanti-blue substrate solution at 37° C. for 2 hrs and the absorbance was read at 620˜655 nm using a spectrophotometer. The signaling pathway that TLR7 activation leads to downstream NF-κB activation has been widely accepted, and therefore similar reporter assay was modified for evaluating TLR7 antagonist.
Turning to `C[C@@H]1CN(c2cc(=O)n(C)c3ncccc23)C[C@H](CN2CC3(C2)OCc2cc(N4CC(N)C4)ccc23)O1` [Example 13, 4-[(2S,6R)-2-[[6-(3-aminoazetidin-1-yl)spiro[1H-isobenzofuran-3,3′-azetidine]-1′-yl]methyl]-6-methyl-morpholin-4-yl]-1-methyl-1,8-naphthyridin-2-one], the IC50 is 10 nM.
For the compound `C[C@@H]1CN(c2ccc(C#N)n3nccc23)C[C@H](CN2CC3(C2)OCc2cc(N4CC5(CNCCO5)C4)ccc23)O1` [Example 7, 4-[(2R,6S)-2-methyl-6-[[6-(5-oxa-2,8-diazaspiro[3.5]nonan-2-yl)spiro[1H-isobenzofuran-3,3′-azetidine]-1′-yl]methyl]morpholin-4-yl]pyrazolo[1,5-a]pyridine-7-carbonitrile], the IC50 was 15 nM.
As for `C[C@@H]1CN(c2ccc(C#N)n3ncc(F)c23)C[C@H](CN2CC3(C2)OCc2cc(N4CC(C)(N)C4)cnc23)O1` [Example 33, 4-[(2S,6R)-2-[[3-(3-amino-3-methyl-azetidin-1-yl)spiro[5H-furo[3,4-b]pyridine-7,3′-azetidine]-1′-yl]methyl]-6-methyl-morpholin-4-yl]-3-fluoro-pyrazolo[1,5-a]pyridine-7-carbonitrile], the IC50 turned out to be 13 nM.
To `[2H]c1ccc2c(N3C[C@H](CN4CC5(C4)OCc4cc(N6CC(N)C6)ncc45)O[C@H](C)C3)ccc(C#N)c2n1` [Example 32, 5-[(2S,6R)-2-[[6-(3-aminoazetidin-1-yl)spiro[1H-furo[3,4-c]pyridine-3,3′-azetidine]-1′-yl]methyl]-6-methyl-morpholin-4-yl]-2-deuterio-quinoline-8-carbonitrile] belongs 4 nM; to `C[C@@H]1CN(c2ccc(C#N)n3ncc(F)c23)C[C@H](CN2CC3(C2)OCc2cc(N4C[C@H](N)[C@@H](O)C4)ccc23)O1` [Example 10, 4-[(2S,6R)-2-[[6-[(3S,4S)-3-amino-4-hydroxy-pyrrolidin-1-yl]spiro[1H-isobenzofuran-3,3′-azetidine]-1′-yl]methyl]-6-methyl-morpholin-4-yl]-3-fluoro-pyrazolo[1,5-a]pyridine-7-carbonitrile], 8 nM.
Then `C[C@@H]1CN(c2ccc(C#N)n3nccc23)C[C@H](CN2CC3(C2)OCc2cc(N4CC(N)C4)ccc23)O1` [Example 19, 4-[(2S,6R)-2-[[6-(3-aminoazetidin-1-yl)spiro[1H-isobenzofuran-3,3′-azetidine]-1′-yl]methyl]-6-methyl-morpholin-4-yl]pyrazolo[1,5-a]pyridine-7-carbonitrile], with 19 nM; and `C[C@@H]1CN(c2ccc(C#N)n3ncc(F)c23)C[C@H](CN2CC3(C2)OCc2cc(N4CC(C)(N)C4)ccc23)O1` [Example 1, 4-[(2S,6R)-2-[[6-(3-amino-3-methyl-azetidin-1-yl)spiro[1H-isobenzofuran-3,3′-azetidine]-1′-yl]methyl]-6-methyl-morpholin-4-yl]-3-fluoro-pyrazolo[1,5-a]pyridine-7-carbonitrile], with 12 nM.
For the compound `[2H]c1ccc2c(N3C[C@H](CN4CC5(C4)OCc4cc(N6C[C@@H](N)[C@H](OC)C6)ccc45)O[C@H](C)C3)ccc(C#N)c2n1` [Example 16, 5-[(2S,6R)-2-[[6-[(3R,4R)-3-amino-4-methoxy-pyrrolidin-1-yl]spiro[1H-isobenzofuran-3,3′-azetidine]-1′-yl]methyl]-6-methyl-morpholin-4-yl]-2-deuterio-quinoline-8-carbonitrile], the IC50 is 19 nM.
To `C[C@@H]1CN(c2ccc(C#N)n3ncc(F)c23)C[C@H](CN2CC3(C2)OCc2cc(N4CC[C@](C)(N)C4)ccc23)O1` [Example 5, 4-[(2S,6R)-2-[[6-[(3S)-3-amino-3-methyl-pyrrolidin-1-yl]spiro[1H-isobenzofuran-3,3′-azetidine]-1′-yl]methyl]-6-methyl-morpholin-4-yl]-3-fluoro-pyrazolo[1,5-a]pyridine-7-carbonitrile] belongs 19 nM.
